In patent US4801456A, “Growth hormone-releasing factor analogs” (International Minerals & Chemical Corp., priority 1987, dated 1989):
Ends that are not written are not given here.

Legend:
[1] = tested on: rat pituitary cells in tissue culture; assay: Bioassay of hGRF analogs: GH release from cultured pituitary cells; format: cell-based
From the text: The assay for biological activity, which is based on the ability to stimulate release of growth hormone in rat pituitary cells in tissue culture, has been described in detail (Culler, M. D.; Kenjo, T.: Obara, N.; Arimuar, A., Stimulation of cAMP. Accumulation by Human Pancreatic GH-Releasing Factor-(1-44). Am. J. Physiol. 1984, 247 (Endocrinol.Metab.10), E609-E615.
ALLFIT, the 4-parameter logistic curve fitting program available from the Biomedical Computer Technology Information Center, Vanderbilt Medical Center, Nashville TN, was used to determine ED50 and maximal stimulated values from the data. In several instances, the amount of GH released reached a maximum value and decreased with further increasing doses of the hGRF analogs. To simplify the data analysis, these values were not used in the calculations. The calculated maximal responses, the doses of the analog required to release the amount of GH released at the ED50 of the standard (hGRF) and the potencies of the analogs relative to hGRF, are given in Table 2. Generally all novel analogs were fully active and were able to stimulate the release of growth hormone with maximal values of GH release being within 80% of the value for natural hGRF.

GH releasing activity = conditions: reported by Rivier et al.; cited from earlier work
[2] = from curves generated by ALLFIT

Molecule: CC[C@H](C)[C@H](NC(=O)[C@H](C)NC(=O)[C@H](CC(=O)O)NC(=O)[C@H](C)NC(=O)[C@@H](N)Cc1ccc(O)cc1)C(=O)N[C@@H](Cc1ccccc1)C(=O)N[C@H](C(=O)N[C@@H](CC(N)=O)C(=O)N[C@@H](CO)C(=O)N[C@@H](Cc1ccc(O)cc1)C(=O)N[C@@H](CCCNC(=N)N)C(=O)N[C@@H](CCCCN)C(=O)N[C@H](C(=O)N[C@@H](CC(C)C)C(=O)NCC(=O)N[C@@H](CCC(N)=O)C(=O)N[C@@H](CC(C)C)C(=O)N[C@@H](CO)C(=O)N[C@@H](C)C(=O)N[C@@H](CCCNC(=N)N)C(=O)N[C@@H](CCCCN)C(=O)N[C@@H](CC(C)C)C(=O)N[C@@H](CC(C)C)C(=O)N[C@@H](CCC(N)=O)C(=O)N[C@@H](CC(=O)O)C(=O)N[C@H](C(=O)N[C@@H](CCSC)C(=O)N[C@@H](CO)C(=O)N[C@@H](CCCNC(=N)N)C(=O)N[C@@H](CCC(N)=O)C(=O)N[C@@H](CCC(N)=O)C(=O)NCC(=O)N[C@@H](CCC(=O)O)C(=O)N[C@@H](CO)C(=O)N[C@@H](CC(N)=O)C(=O)N[C@@H](CCC(N)=O)C(=O)N[C@@H](CCC(=O)O)C(=O)N[C@@H](CCCNC(=N)N)C(=O)NCC(=O)N[C@@H](C)C(=O)N[C@@H](CCCNC(=N)N)C(=O)N[C@@H](C)C(=O)N[C@@H](CCCNC(=N)N)C(=O)N[C@@H](CC(C)C)C(N)=O)[C@@H](C)CC)C(C)C)[C@@H](C)O [hGRF(1-44)-NH2, hGRF(1-44)--NH2, reference compound]
- GH Released (mean ± (S.E.)) ([1]; Dose 1 × 10^-6 M): 2.81 (0.13) μg/mL
- GH Released (mean ± (S.E.)) ([1]; Dose 1 × 10^-7 M): 3.17 (0.12) μg/mL
- GH Released (mean ± (S.E.)) ([1]; Dose 1 × 10^-8 M): 3.44 (0.23) μg/mL
- GH Released (mean ± (S.E.)) ([1]; Dose 1 × 10^-9 M): 2.84 (0.12) μg/mL
- GH Released (mean ± (S.E.)) ([1]; Dose 1 × 10^-10 M): 1.16 (0.04) μg/mL
- GH Released (mean ± (S.E.)) ([1]; Dose 1 × 10^-11 M): 0.73 (0.03) μg/mL
- Dose Needed to Release 2.01 μg/ml of GH (ED50 value for hGRF) [1, 2]: 0.32 nM
- Maximum GH Released [1, 2]: 3.31 µg/mL
- Relative Maximum Activity (% of hGRF) [1, 2]: 100%
- Biological activity compared with natural hGRF(1-44)--NH2 ([1]; natural hGRF isolated from a human pancreatic tumor (Salk Institute standard)): identical to the natural hGRF(1-44)--NH2
- Potency: (ED50 of hGRF)/(Dose required to give same response as ED50 of hGRF) ([1]; relative to hGRF(1-44)-NH2 = 100): 100%

Molecule: hpGRF(1-27)--NH2 (YADAIFTNSYRKVLGQLSARKLLQDIM-NH2; UniProt P01286 32-58, looked up, fragment) [shortened GRF analog tested by Rivier et al]
- activity compared in vitro with the parent hpGRF(1-40)--OH (GH releasing activity): exhibited similar activity

Molecule: hpGRF(1-29)--NH2 (YADAIFTNSYRKVLGQLSARKLLQDIMSR-NH2; UniProt P01286 32-60, looked up, fragment) [shortened GRF analog tested by Rivier et al]
- activity compared in vitro with the parent hpGRF(1-40)--OH (GH releasing activity): exhibited similar activity

Molecule: hpGRF(1-32)--NH2 (YADAIFTNSYRKVLGQLSARKLLQDIMSRQQG-NH2; UniProt P01286 32-63, looked up, fragment) [shortened GRF analog tested by Rivier et al]
- activity compared in vitro with the parent hpGRF(1-40)--OH (GH releasing activity): exhibited similar activity

Molecule: hpGRF(1-39)--NH2 (YADAIFTNSYRKVLGQLSARKLLQDIMSRQQGESNQERG-NH2; UniProt P01286 32-70, looked up, fragment) [shortened GRF analog tested by Rivier et al]
- activity compared in vitro with the parent hpGRF(1-40)--OH (GH releasing activity): exhibited similar activity

Molecule: hpGRF(1-40)--NH2 (YADAIFTNSYRKVLGQLSARKLLQDIMSRQQGESNQERGA-NH2; UniProt P01286 32-71, looked up, fragment) [shortened GRF analog tested by Rivier et al]
- activity compared in vitro with the parent hpGRF(1-40)--OH (GH releasing activity): exhibited similar activity
